pEC50, pIC50: −log10 of the molar value. Some results are limits rather than exact numbers.

The values that follow come from ChEMBL document CHEMBL5226283, “Reactive Oxygen Species (ROS)-Responsive Prodrugs, Probes, and Theranostic Prodrugs: Applications in the ROS-Related Diseases” (J Med Chem, 2021).

Series [1] in a line: Cytotoxicity against human HEK293T cells assessed as cell growth inhibition.
For series [2], the system named is A549. The series can be described thus: Antitumor activity against human A549 tumor spheroid cells assessed as reduction in size of tumor spheroid measured after 3 days by fluorescence microscopic analysis relative to control. The series is classed as functional. The arrangement: scale not given: the % may be the effect or the level left. The settings on record: time 3 day.

The subject of series [3] is SN12C. The series can be described thus: Antiproliferative activity against human SN12C cells assessed as cell growth inhibition at 10 uM by SRB assay. The arrangement: scale not given: the % may be the effect or the level left. Format: functional.
Series [4] deals with DNA. The series can be described thus: Induction of ROS-mediated DNA (unknown origin) assessed as efficiency of ICL formation preincubated with compounds followed by H2O2 addition relative to control. The series is classed as functional.
Series [5] concerns CAKI-1. In words: Antiproliferative activity against human CAKI-1 cells assessed as cell growth inhibition at 10 uM by SRB assay. The series is classed as functional. The arrangement: scale not given: the % may be the effect or the level left.
Series [6] relates to SR. The series can be described thus: Antiproliferative activity against human SR cells assessed as cell growth inhibition at 10 uM by SRB assay. Format: functional. Also on record: scale not given: the % may be the effect or the level left.
Series [7] deals with NCI-H460. The series can be described thus: Antiproliferative activity against human NCI-H460 cells assessed as cell growth inhibition at 10 uM by SRB assay. The series is classed as functional. Also on record: scale not given: the % may be the effect or the level left. Background: In SRB staining, fixed cells bind dye roughly in proportion to their protein.
In series [8] the test system is DNA. In words: Induction of ROS-mediated DNA (unknown origin) ICL formation by measuring rate constant preincubated with compounds followed by H2O2 addition. The series is classed as functional.
In series [9] the test system is MIA PaCa-2. The series can be described thus: Antiproliferative activity against human MIA PaCa-2 cells assessed as cell growth inhibition. The series is classed as functional, cell-based.
In series [10] the test system is HeLa. The series can be described thus: Antiproliferative activity against human HeLa cells assessed as cell growth inhibition at 12.5 uM relative to control. Format: functional. Also on record: scale not given: the % may be the effect or the level left.
Series [11] can be described thus: Oral bioavailability in C57BL/6 mouse. The settings on record: in vivo. Format: ADME, organism-based.
In series [12] the target is Matrix metalloproteinase-9 (Homo sapiens, UniProt P14780). The series can be described thus: Inhibition of MMP9 (unknown origin).
Matrix metalloproteinase-9, sequence (P14780 whole entry): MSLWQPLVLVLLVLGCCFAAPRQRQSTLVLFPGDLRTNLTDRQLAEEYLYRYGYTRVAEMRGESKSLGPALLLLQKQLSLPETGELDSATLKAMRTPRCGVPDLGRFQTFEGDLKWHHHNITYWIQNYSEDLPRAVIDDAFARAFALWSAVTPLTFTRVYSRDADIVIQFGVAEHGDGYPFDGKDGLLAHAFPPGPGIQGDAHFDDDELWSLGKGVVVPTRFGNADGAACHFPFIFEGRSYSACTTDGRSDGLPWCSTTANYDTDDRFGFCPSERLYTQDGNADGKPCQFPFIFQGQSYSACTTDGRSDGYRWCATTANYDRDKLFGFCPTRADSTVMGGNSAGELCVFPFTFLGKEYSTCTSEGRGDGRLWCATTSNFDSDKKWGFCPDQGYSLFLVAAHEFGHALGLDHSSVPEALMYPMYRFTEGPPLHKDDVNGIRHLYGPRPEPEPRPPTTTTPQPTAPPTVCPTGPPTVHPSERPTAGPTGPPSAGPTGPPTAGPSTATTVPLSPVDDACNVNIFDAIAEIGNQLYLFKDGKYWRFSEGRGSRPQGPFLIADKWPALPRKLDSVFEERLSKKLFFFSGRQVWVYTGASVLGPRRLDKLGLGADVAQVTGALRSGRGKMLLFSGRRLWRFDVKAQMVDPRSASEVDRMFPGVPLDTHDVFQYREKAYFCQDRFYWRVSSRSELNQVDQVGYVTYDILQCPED
Series [13] can be described thus: Permeability of compound by PAMPA assay. The series is classed as ADME. The settings on record: read-out: permeability.
The target of series [14] is Keap1/Nrf2 (Homo sapiens, UniProt Q14145+Q16236). In words: Inhibition of Keap1-Nrf2 (unknown origin). The series is classed as protein assay.
Keap1/Nrf2, sequence (Q16236 whole entry): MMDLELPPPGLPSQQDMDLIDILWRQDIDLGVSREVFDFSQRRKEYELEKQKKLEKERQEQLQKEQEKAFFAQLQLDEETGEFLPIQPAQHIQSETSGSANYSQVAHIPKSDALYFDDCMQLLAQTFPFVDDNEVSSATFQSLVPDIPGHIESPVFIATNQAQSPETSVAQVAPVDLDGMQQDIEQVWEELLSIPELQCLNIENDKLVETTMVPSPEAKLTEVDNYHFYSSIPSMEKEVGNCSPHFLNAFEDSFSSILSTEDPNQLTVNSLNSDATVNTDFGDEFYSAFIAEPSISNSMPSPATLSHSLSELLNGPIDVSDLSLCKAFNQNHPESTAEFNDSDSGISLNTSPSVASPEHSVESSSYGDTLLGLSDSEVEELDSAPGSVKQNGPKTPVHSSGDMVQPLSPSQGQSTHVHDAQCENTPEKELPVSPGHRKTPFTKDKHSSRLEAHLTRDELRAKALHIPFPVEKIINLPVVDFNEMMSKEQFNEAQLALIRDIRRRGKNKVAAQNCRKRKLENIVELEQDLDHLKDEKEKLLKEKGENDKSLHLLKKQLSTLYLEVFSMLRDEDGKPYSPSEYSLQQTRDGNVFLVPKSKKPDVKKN
Keap1/Nrf2, sequence (Q14145 whole entry): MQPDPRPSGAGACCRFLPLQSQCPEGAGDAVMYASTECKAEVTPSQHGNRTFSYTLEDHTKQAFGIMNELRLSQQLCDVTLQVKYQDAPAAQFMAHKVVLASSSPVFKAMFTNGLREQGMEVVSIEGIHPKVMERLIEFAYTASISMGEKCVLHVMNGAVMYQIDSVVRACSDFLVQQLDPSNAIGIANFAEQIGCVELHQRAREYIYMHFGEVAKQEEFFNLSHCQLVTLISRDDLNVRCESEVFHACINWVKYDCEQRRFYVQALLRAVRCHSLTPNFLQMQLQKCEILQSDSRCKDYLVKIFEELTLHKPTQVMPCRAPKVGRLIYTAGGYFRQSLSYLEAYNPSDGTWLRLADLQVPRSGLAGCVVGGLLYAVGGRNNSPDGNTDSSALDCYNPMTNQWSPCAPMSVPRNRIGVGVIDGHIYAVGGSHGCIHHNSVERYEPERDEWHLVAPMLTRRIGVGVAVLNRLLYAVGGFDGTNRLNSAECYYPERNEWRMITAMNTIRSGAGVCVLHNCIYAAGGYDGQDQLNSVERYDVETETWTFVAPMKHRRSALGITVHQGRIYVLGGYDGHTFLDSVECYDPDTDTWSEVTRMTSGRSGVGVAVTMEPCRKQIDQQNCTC
Series [15] in a line: Activation of Nrf2-ARE pathway in LPS-induced human HepG2-ARE-C8 cells. Format: cell-based.
For series [16], the system named is KB. The series can be described thus: Antiproliferative activity against human KB cells assessed as cell growth inhibition at 5 uM relative to control. Format: functional. Also on record: scale not given: the % may be the effect or the level left.
Series [17] concerns WI-38. The series can be described thus: Cytotoxicity against human WI-38 cells assessed as cell growth inhibition at 5 uM relative to control. Format: functional. The arrangement: scale not given: the % may be the effect or the level left.
The subject of series [18] is 4T1. In words: Antiproliferative activity against mouse 4T1 cells assessed as cell growth inhibition. Format: functional, cell-based.
For series [19], the system named is A549. In words: Antiproliferative activity against human A549 cells assessed as cell growth inhibition. The series is classed as functional, cell-based.
The test system of series [20] is HeLa. The series can be described thus: Antiproliferative activity against human HeLa cells assessed as cell growth inhibition at 2 uM relative to control. The series is classed as functional. The arrangement: scale not given: the % may be the effect or the level left.
In series [21] the test system is DU-145. The series can be described thus: Antiproliferative activity against human DU-145 cells assessed as cell growth inhibition. The series is classed as functional.
In series [22] the test system is MDA-MB-468. The series can be described thus: Antiproliferative activity against human MDA-MB-468 cells assessed as cell growth inhibition. Format: functional.
The test system of series [23] is UO-31. The series can be described thus: Antiproliferative activity against human UO-31 cells assessed as cell growth inhibition. Format: functional.
Series [24] relates to MOLT-4. In words: Antiproliferative activity against human MOLT-4 cells assessed as cell growth inhibition. Format: functional.
Series [25] has as its system 786-0. The series can be described thus: Antiproliferative activity against human 786-0 cells assessed as cell growth inhibition. Format: functional.
Series [26] deals with SR. In words: Antiproliferative activity against human SR cells assessed as cell growth inhibition. The series is classed as functional.
The test system of series [27] is NCI-H522. In words: Antiproliferative activity against human NCI-H522 cells assessed as cell growth inhibition. Format: functional.
Series [28] deals with SNB-75. In words: Antiproliferative activity against human SNB-75 cells assessed as cell growth inhibition. The series is classed as functional.
Series [29] has as its system ACHN. In words: Antiproliferative activity against human ACHN cells assessed as cell growth inhibition. Format: functional.
The test system of series [30] is CAKI-1. The series can be described thus: Antiproliferative activity against human CAKI-1 cells assessed as cell growth inhibition. The series is classed as functional.
The test system of series [31] is CCRF-CEM. The series can be described thus: Antiproliferative activity against human CCRF-CEM cells assessed as cell growth inhibition. The series is classed as functional.
Series [32] concerns SF-268. The series can be described thus: Antiproliferative activity against human SF-268 cells assessed as cell growth inhibition. Format: functional.
The subject of series [33] is NCI-H460. In words: Antiproliferative activity against human NCI-H460 cells assessed as cell growth inhibition. The series is classed as functional.
Series [34] relates to LOX IMVI. In words: Antiproliferative activity against human LOX IMVI cells assessed as cell growth inhibition. The series is classed as functional.
The subject of series [35] is UACC-257. In words: Antiproliferative activity against human UACC-257 cells assessed as cell growth inhibition. Format: functional.
Series [36] has as its system SF-295. In words: Antiproliferative activity against human SF-295 cells assessed as cell growth inhibition. The series is classed as functional.
Series [37] deals with HL-60(TB). In words: Antiproliferative activity against human HL-60(TB) cells assessed as cell growth inhibition. The series is classed as functional.
The subject of series [38] is MCF7. The series can be described thus: Antiproliferative activity against human MCF7 cells assessed as cell growth inhibition. The series is classed as functional.
Series [39] relates to UACC-62. The series can be described thus: Antiproliferative activity against human UACC-62 cells assessed as cell growth inhibition. Format: functional.
Series [40] concerns HOP-92. The series can be described thus: Antiproliferative activity against human HOP-92 cells assessed as cell growth inhibition. The series is classed as functional.
Series [41] relates to M14. The series can be described thus: Antiproliferative activity against human M14 cells assessed as cell growth inhibition. The series is classed as functional.
In series [42] the test system is SF-539. The series can be described thus: Antiproliferative activity against human SF-539 cells assessed as cell growth inhibition. Format: functional.
For series [43], the system named is RXF 393. In words: Antiproliferative activity against human RXF 393 cells assessed as cell growth inhibition. The series is classed as functional.
The test system of series [44] is NCI-H23. In words: Antiproliferative activity against human NCI-H23 cells assessed as cell growth inhibition. Format: functional.

Take `CC1(C)OB(c2ccc(COC(=O)ONC(=O)CCCCCCC(=O)Nc3ccccc3)cc2)OC1(C)C`: the pEC50 in series [1] is under 6.00. Moreover, the Activity in series [2] amounted to 80%.
`CC1(C)OB(c2ccc(C[N+](C)(CCCl)CCCl)cc2)OC1(C)C.[Br-]`: the Activity in series [3] worked out at 57%; in series [4], 43%; in series [5], 66%; in series [6], 90%; in series [7], 85%. Moreover, the K in series [8] is 4.6 10^-5/s.
As to `COc1cccc2c1C(=O)c1c(O)c3c(c(O)c1C2=O)C[C@@](O)(C(=O)CO)C[C@@H]3O[C@H]1C[C@H](NC(=O)OCc2ccc(B3OC(C)(C)C(C)(C)O3)cc2)[C@H](O)[C@H](C)O1`, the pIC50 in [9] was 6.52.
Consider `COC(=O)[C@]1([Se]c2ccccc2)C[C@]2(C)C(=O)[C@]1(C)C(c1ccccc1)=C2c1ccccc1`, for which the Activity entry in [10] is reported as “<=80%”.
Turning to `CC1(C)OB(c2ccc(COn3c(C(=O)NCc4ccc(-c5ccccc5)cc4)cccc3=O)cc2)OC1(C)C`, in series [11], the bioavailability amounted to 68.1%. The figures for the negative-log IC50 (pIC50) in series [12] and in [14] were under 3.00 and 7.01, respectively. Moreover, the Papp in [13] is 6.35 ×10⁻⁶ cm/s. Also, in [15], the negative logarithm of the EC50 (pEC50) was 6.49.
Molecule `CC1(C)OB(c2ccc(COc3c(C(=O)NCc4ccc(-c5ccccc5)cc4)occc3=O)cc2)OC1(C)C` showed a pIC50 in [12] of under 3.00.
As to `CCN(CC)c1ccc2c(c1)Oc1cc(OCc3ccc(B4OC(C)(C)C(C)(C)O4)cc3)c(COC(=O)OC3(CC)C(=O)OCc4c3cc3n(c4=O)Cc4cc5ccccc5nc4-3)cc1C21c2ccccc2CN1CCNC(=O)CCC(NC(=O)c1ccc(NCc2cnc3[nH]c(N)nc(=O)c3n2)cc1)C(=O)O` (stereo not drawn), the Activity in [16] was found to be 70%; in series [17], 100%.
For `O=C(CCCCCCC(=O)Nc1ccccc1)NO` [VORINOSTAT], the Activity in [2] came to 50%.
With `CCCCC/C=C\C/C=C\CCCCCCCC(=O)OCCOC(=O)CSCC(=O)OC(C(=O)OC1C[C@@]2(O)[C@@H](OC(=O)c3ccccc3)[C@@H]3[C@]4(OC(C)=O)CO[C@@H]4C[C@H](O)[C@@]3(C)C(=O)[C@H](OC(C)=O)C(=C1C)C2(C)C)C(NC(=O)c1ccccc1)c1ccccc1` (stereo partly drawn), the negative logarithm of the IC50 (pIC50) in [18] is 6.90; in series [19] it was 6.75.
With `COc1cccc2c1C(=O)c1c(O)c3c(c(O)c1C2=O)C[C@@](O)(C(=O)CO)C[C@@H]3O[C@H]1C[C@H](N)[C@H](O)[C@H](C)O1` [DOXORUBICIN], the Activity in [20] is 20%.
As to `CC1(C)OB(c2ccc(COC(=O)Nc3ccc(N(CCCl)CCCl)cc3)cc2)OC1(C)C`, the GI50 in series [21], in series [22], in series [23], in [24], in [25] and in [26] was under 1 µM each time. Moreover, the GI50 in series [27], in series [28], in series [29], in series [30], in series [31] and in [32] was under 1 µM throughout. Further, the 50% growth inhibitory concentration (GI50) in series [33], in [34], in series [35], in series [36], in [37] and in series [38] was under 1 µM each time. Further, the GI50 in [39], in series [40], in series [41], in series [42], in series [43] and in series [44] was under 1 µM throughout. Besides, in [19], the GI50 is under 1 µM. The Activity in series [4] came to 47%.

Broadly, the pEC50 is −log10 of the EC50, conventionally taken in molar units. The term pIC50 denotes the IC50 on a negative log10 scale, so that one unit is a factor of ten. What is called bioavailability is dose-corrected exposure relative to a reference, in per cent. The GI50 is the concentration giving 50% growth inhibition.
